Measurements taken from patent US20160368853A1, “MONOESTERS, INNER COMPLEX SALTS OR MONOESTER SALTS OF HEXAHYDRO-BETA-ACID AND APPLICATION THEREOF AS ANIMAL FEED ADDITIVES” (GUANGZHOU INSIGHTER BIOTECHNOLOGY CO., LTD., priority 2014, published 2016).

Key:
[1] = Thermo stability test of esters and/or salts of hexahydro-β-acid (2% premix, 100° C., HPLC); type: physicochemical; settings: premix with corncob powder, initial content 2.0%, oven 100° C.
Experimental: Samples (the premixes) were placed in crucibles, and then placed in oven at 100° C. for different durations. Then 1.0 g of each of the samples (three duplicate samples from each sample) and 50 ml of ethanol were added into a conical flask, followed by the addition of 100 μL of concentrated hydrochloric acid. The mixture was then subjected to sonication for 5 minutes, and then filtrated. The filtrate was transferred into a 50 ml volumetric flask, topped up to the final volume with ethanol, and then filtered with a 0.45 μm microporous membrane and subjected to HPLC analysis.

[2] = system: Duroc-Yorkshire-Landrace crossbred lean pigs; assay: Application effect in pig feed (14 days feeding trial); type: in vivo; settings: for Average daily weight gain / Average weight gain / Feed conversion efficiency / Consumption: pigs; for Consumption: 20 pigs
Text: 120 67-day-aged, Duroc-Yorkshire-Landrace crossbred lean pigs similar in weight were randomly divided into six groups, 20 pigs in each group.

[3] = system: fast-grown yellow feather broilers (female); assay: Application effect in broiler feed (30 days feeding trial); type: in vivo; settings: for Average daily weight gain / Average weight gain / Feed conversion efficiency / Survival rate / Consumption: broilers, 30 days; for Consumption: 100 broilers per group
Text: 500 1-day-aged, healthy, fast-grown yellow feather broilers (female) in the same growing state and similar in weight were randomly divided into five groups according to table 2, 100 broilers in each group. Broilers of each group were fed with different dosages of mono decanoate ester of hexahydro-β-acid or hexahydro-β-acid.

[4] = Group 3, 5 mg/kg mixed with feed
[5] = Group 4, 25 mg/kg mixed with feed
[6] = Group 5, 5 mg/kg mixed with feed
[7] = Group 6, 25 mg/kg mixed with feed

Substance: Cobalt Salt of Acetate Ester of hexahydro-β-acid
- Content when being heated at 100° C. for 20 h [1]: 0.17%
- Content when being heated at 100° C. for 44 h [1]: 0.12%

Substance: Ferrous Salt of Acetate Ester of hexahydro-β-acid
- Content when being heated at 100° C. for 20 h [1]: 1.69%
- Content when being heated at 100° C. for 44 h [1]: 1.63%

Substance: calcium salt of acetate ester of hexahydro-β-acid
- Content when being heated at 100° C. for 20 h [1]: 1.21%
- Content when being heated at 100° C. for 44 h [1]: 0.31%

Substance: calcium salt of hexahydro-β-acid
- Content when being heated at 100° C. for 20 h [1]: 0.35%
- Content when being heated at 100° C. for 44 h [1]: 0.09%

Substance: cetylate ester of hexahydro-β-acid
- Content when being heated at 100° C. for 20 h [1]: 1.98%
- Content when being heated at 100° C. for 44 h [1]: 1.93%
- feed conversion efficiency of the pigs ([2]; in words): significantly improved
- weight gain of the pigs ([2]; in words): significantly improved
- Average daily weight gain [2, 4]: 0.512 kg/day
- Average weight gain [2, 4]: 7.18 kg
- Feed conversion efficiency [2, 4]: 2.078
- Consumption [2, 4]: 298.4 kg
- Average daily weight gain [2, 5]: 0.570 kg/day
- Average weight gain [2, 5]: 7.985 kg
- Feed conversion efficiency [2, 5]: 1.706
- Consumption [2, 5]: 272.5 kg
- Average daily weight gain [2, 6]: 0.508 kg/day
- Average weight gain [2, 6]: 7.11 kg
- Feed conversion efficiency [2, 6]: 1.949
- Consumption [2, 6]: 277.2 kg
- Average daily weight gain [2, 7]: 0.580 kg/day
- Average weight gain [2, 7]: 8.12 kg
- Feed conversion efficiency [2, 7]: 1.690
- Consumption [2, 7]: 274.5 kg

Substance: copper salt of acetate ester of hexahydro-β-acid
- Content when being heated at 100° C. for 20 h [1]: 1.50%
- Content when being heated at 100° C. for 44 h [1]: 1.28%

Substance: ferrous salt of hexahydro-β-acid
- Content when being heated at 100° C. for 20 h [1]: 0.14%
- Content when being heated at 100° C. for 44 h [1]: 0.05%

Substance: hexahydro-β-acid [reference compound]
- Content when being heated at 100° C. for 20 h [1]: 0.06%
- Content when being heated at 100° C. for 44 h [1]: 0%
- Average daily weight gain ([3]; 2 ppm mixed with feed): 24.83 g
- Average weight gain ([3]; 2 ppm mixed with feed): 745 g
- Feed conversion efficiency ([3]; 2 ppm mixed with feed): 1.983
- Survival rate ([3]; 2 ppm mixed with feed): 100%
- Consumption ([3]; 2 ppm mixed with feed): 147.76 kg
- Average daily weight gain ([3]; 20 ppm mixed with feed): 25.26 g
- Average weight gain ([3]; 20 ppm mixed with feed): 758 g
- Feed conversion efficiency ([3]; 20 ppm mixed with feed): 1.968
- Survival rate ([3]; 20 ppm mixed with feed): 100%
- Consumption ([3]; 20 ppm mixed with feed): 149.18 kg

Substance: laurate ester of hexahydro-β-acid
- Content when being heated at 100° C. for 20 h [1]: 2.0%
- Content when being heated at 100° C. for 44 h [1]: 1.96%

Substance: magnesium salt of acetate ester of hexahydro-β-acid
- Content when being heated at 100° C. for 20 h [1]: 1.42%
- Content when being heated at 100° C. for 44 h [1]: 0.7%

Substance: magnesium salt of hexahydro-β-acid
- Content when being heated at 100° C. for 20 h [1]: 1.49%
- Content when being heated at 100° C. for 44 h [1]: 0.91%

Substance: manganese salt of acetate ester of hexahydro-β-acid
- Content when being heated at 100° C. for 20 h [1]: 0%
- Content when being heated at 100° C. for 44 h [1]: 0%

Substance: mono acetate ester of hexahydro-β-acid
- Content when being heated at 100° C. for 20 h [1]: 1.52%
- Content when being heated at 100° C. for 44 h [1]: 1.11%

Substance: mono decanoate ester of hexahydro-β-acid
- Content when being heated at 100° C. for 20 h [1]: 1.93%
- Content when being heated at 100° C. for 44 h [1]: 1.82%
- feed conversion efficiency of the broilers ([3]; 30 days test period, in words): significantly improved
- weight gain of the broilers ([3]; 30 days test period, in words): significantly improved
- Average daily weight gain ([3]; 2 ppm mixed with feed): 25.6 g
- Average weight gain ([3]; 2 ppm mixed with feed): 768 g
- Feed conversion efficiency ([3]; 2 ppm mixed with feed): 1.926
- Survival rate ([3]; 2 ppm mixed with feed): 100%
- Consumption ([3]; 2 ppm mixed with feed): 147.94 kg
- Average daily weight gain ([3]; 20 ppm mixed with feed): 26.57 g
- Average weight gain ([3]; 20 ppm mixed with feed): 797 g
- Feed conversion efficiency ([3]; 20 ppm mixed with feed): 1.837
- Survival rate ([3]; 20 ppm mixed with feed): 100%
- Consumption ([3]; 20 ppm mixed with feed): 146.42 kg
- improvement of the productivity of the broilers ([3]; compared with hexahydro-β-acid in the same dosage): more significant than that of the broilers fed with hexahydro-β-acid in the same dosage

Substance: zinc salt of acetate ester of hexahydro-β-acid
- Content when being heated at 100° C. for 20 h [1]: 1.64%
- Content when being heated at 100° C. for 44 h [1]: 0.70%

Substance: zinc salt of hexahydro-β-acid
- Content when being heated at 100° C. for 20 h [1]: 0.95%
- Content when being heated at 100° C. for 44 h [1]: 0.52%
